Laboratory results published in ChEMBL document CHEMBL2086313, “Structure-based design of novel potent protein kinase CK2 (CK2) inhibitors with phenyl-azole scaffolds” (J Med Chem, 2012).
pIC50: −log10 of the molar value.

Columns and labels:
[1] = tested on: HCT-116; assay: cells; details: Homo sapiens, HCT-116, 72 h
[2] = tested on: MCF7; assay: Antiproliferative activity against human MCF7 cells after 72 hrs by MTS assay; details: MCF7, 72 h
[3] = tested on: A549; assay: cells; details: Homo sapiens, A549, 72 h
[4] = target: T1, Casein kinase II subunit alpha' (Homo sapiens, UniProt P19784); assay: Competitive inhibition of GST fused human CK2alpha' expressed in Escherichia coli BL21 after 10 mins in presence of ATP
[5] = target: T2, Casein kinase II subunit alpha (Homo sapiens, UniProt P68400); assay: Competitive inhibition of GST fused human CK2alpha expressed in Escherichia coli BL21 after 10 mins in presence of ATP
[6] = target: T1, Casein kinase II subunit alpha'; assay: Inhibition of GST fused human CK2alpha' expressed in Escherichia coli BL21 at 0.3 uM
[7] = target: T2, Casein kinase II subunit alpha; assay: Inhibition of GST fused human CK2alpha expressed in Escherichia coli BL21 at 0.3 uM
[8] = target: RAC-alpha serine/threonine-protein kinase (Homo sapiens) (UniProt P31749); assay: Inhibition of AKT1 at 3 uM
[9] = target: Cyclin-dependent kinase 6 (Homo sapiens) (UniProt Q00534); assay: Inhibition of CDK6 at 3 uM
[10] = target: Receptor-type tyrosine-protein kinase FLT3 (Homo sapiens) (UniProt P36888); assay: Inhibition of FLT3 at 0.3 uM
[11] = target: Dual specificity tyrosine-phosphorylation-regulated kinase 1B (Homo sapiens) (UniProt Q9Y463); assay: Inhibition of DYRK1B at 0.3 uM

Compound | pIC50 [1] | pIC50 [2] | pIC50 [3] | pIC50 [4] | pIC50 [5] | inhibition [6] | inhibition [7] | inhibition [8] | inhibition [9] | inhibition [10] | inhibition [11]
O=C(O)c1ccc2c(c1)nc(Nc1cccc(Cl)c1)c1ccncc12 [SILMITASERTIB] | 5.28 | 5.19 | 5.09 | – | – | – | – | – | – | – | –
COc1ccc(C(=O)Nc2cc(-c3ccc(C(=O)O)cc3)[nH]n2)cc1 | < 4.52 | < 4.52 | < 4.52 | – | – | – | – | – | – | – | –
O=C(O)Cc1ccn(-c2cncc(-n3ncc4ccc(NC5CCCC5)cc43)n2)c1 | 4.62 | 4.12 | 4.44 | – | – | – | – | – | – | – | –

Other lines, results leading:

pIC50 [1] | pIC50 [2] | pIC50 [3] | pIC50 [4] | pIC50 [5] | inhibition [6] | inhibition [7] | inhibition [8] | inhibition [9] | inhibition [10] | inhibition [11] | Compound
< 4.52 | < 4.52 | < 4.52 | – | – | – | – | – | – | – | – | COc1ccc(C(=O)Nc2nnc(-c3ccc(C(=O)O)cc3)s2)cc1
5.80 | 5.62 | 5.59 | 7.34 | 7.49 | > 100% | 84% | 0.8% | 32% | 76% | 82% | COc1ccc(C(=O)Nc2ncc(-c3ccc(C(=O)O)cc3)s2)cc1
